In brackets after ≈: the same amount, converted by molar mass. Where two headings read alike, the source gives them in different places.
Experiments:
Assay type in all cases: cell-based
[1] = tested on: Escherichia coli GC4559 parent GC4560; assay: Broth microdilution MIC; conditions: E. coli GC4559; for In Vitro Activity of Tigecycline: Broth; for MIC: Escherichia coli, read-out: Minimal Inhibitory Concentration
Procedure: (§1) The process for preparing susceptibility test medium are the following steps: • a. Preparing Mueller Hinton Broth II medium by adding 22 grams powdered media to 1.0 liter distilled water; • b. Autoclaving (121° C., 15 psi, 15 minutes) and cooling the medium; • c. Adding Oxyrase® up to about 10% final volume and keeping at 35-37° C. in an incubator for 30 minutes; • d. Adding about 50 μL to each well of a 96 well microtiter plate; • e. Weighing drug and adding broth to drug to bring up to about (standard 128 μg/ml); • f. Adding 50 μL of the drug to the first column of the titer plate; • g. Diluting by two-fold serial diluting across or down the plate. • h. Preparing a Prompt™ inoculum at 10^8 CFU/ml; • i. Diluting inoculum 1:100 in the broth at […] in 9.9 ml (1:100) is 10^6 colony forming units (CFU) forming the adjusted inoculum; • j. Adding 50 μL of the adjusted inoculum to the wells of the microtiter plate; • k. Incubating the plates at 35-37° C. for 18-22 hours; and • l. Reading, with the unaided eye, the MIC.
(§2) The in vitro activities of tigecycline and control antibiotics were determined by the broth microdilution method as recommended by the NCCLS. (National Committee for Clinical Laboratory Standards, 2003. Methods for Dilution Antimicrobial Susceptibility Tests for Bacteria That Grow Aerobically; Approved Standards: M7-A6, Sixth ed, vol. 23., National Committee for Clinical Laboratory Standards Wayne, Pa.) was used for the standard procedures. MBH with 5% lysed horse blood was used for testing S. pneumoniae and Haemophilus Test Medium was used for testing H. influenzae. Oxyrase® (Oxyrase Inc, Mansfield, Ohio) was used according to the manufacturer's instructions by adding 1 ml of Oxyrase® to 50 ml of media. Media age studies were performed by preparing MHB in multiple flasks, then storing the media under various conditions. MICs were usually performed in duplicate on each day of testing. Storage under anaerobic conditions was conducted in an anaerobic chamber (MACS MG 1000, Don Whitley Scientific LTD). The pH of the media was determined by pH meter (Corning 430). A comparison of the in vitro activity of tigecycline by agar and broth dilution methodolgies with and without Oxyrase® against clinical isolates is shown in Table 1.

[2] = tested on: H. influenzae GC6896 (ATCC Control); assay: Broth microdilution MIC; conditions: Haemophilus influenzae, read-out: Minimal Inhibitory Concentration
Procedure: as §1, §2

[3] = tested on: S. pneumoniae ATCC 49619; assay: Broth microdilution MIC
Procedure: as §1, §2

[4] = tested on: S. pneumoniae GC1894 (Clinical); assay: Broth microdilution MIC; conditions: Streptococcus pneumoniae, read-out: Minimal Inhibitory Concentration
Procedure: as §1, §2

[5] = tested on: Staphylococcus aureus GC1079 tet(K); assay: Broth microdilution MIC
Procedure: as §1, §2

[6] = tested on: Staphylococcus aureus GC6467 Clinical - tet(M) + (K); assay: Broth microdilution MIC; conditions: S. aureus GC6467 tet(M) + (K)
Procedure: as §1, §2

[7] = tested on: ATCC reference strains; assay: Broth microdilution MIC, reference strains taken together
Procedure: The MICs for TGC were determined under various conditions by broth microdilution using NCCLS procedures. The MHB was stored at 2° C., room temperature, anaerobically and with the addition of Oxyrase® to determine the effect of various conditions. Time Kill kinetics was used to confirm MIC differences observed with the broth microdilution for aged and fresh media results.
as §2
To determine the effect of media age on the in vitro activity of tigecycline, MHB was prepared and stored at room temperature or 2° C. for 28 days. […] The aging of the media was slowed somewhat in the media stored at […] compared to the media stored at room temperature.

[8] = 336 h, Aged Media (two weeks at RT)
[9] = Table 8, Mueller Hinton Broth + Oxyrase, n = 240
[10] = Table 8, Mueller Hinton Broth, n = 320

CN(C)c1cc(NC(=O)CNC(C)(C)C)c(O)c2c1C[C@H]1C[C@H]3[C@H](N(C)C)C(O)=C(C(N)=O)C(=O)[C@@]3(O)C(O)=C1C2=O [Tigecycline, tigecycline]
In Vitro Activity of Tigecycline ([1]; Oxyrase (2%)): 0.12 | In Vitro Activity of Tigecycline ([1]; no Oxyrase): 0.50 | MIC [1, 8]: 0.12 mg/L (≈ 0.205 µM) | MIC ([1]; Fresh Media): 0.06 mg/L (≈ 0.102 µM) | MIC [2, 8]: 0.5 mg/L (≈ 0.854 µM) | MIC ([2]; Fresh Media): 0.25 mg/L (≈ 0.427 µM) | Number of Occurrences of MIC 0.004 ug/ml [3, 9]: 6 | Number of Occurrences of MIC 0.008 ug/ml [3, 9]: 73 | Number of Occurrences of MIC 0.016 ug/ml [3, 9]: 137 | Number of Occurrences of MIC 0.03 ug/ml [3, 9]: 21 | Number of Occurrences of MIC 0.06 ug/ml [3, 9]: 3 | Number of Occurrences of MIC 0.016 ug/ml [3, 10]: 1 | Number of Occurrences of MIC 0.03 ug/ml [3, 10]: 54 | Number of Occurrences of MIC 0.06 ug/ml [3, 10]: 188 | Number of Occurrences of MIC 0.12 ug/ml [3, 10]: 48 | Number of Occurrences of MIC 0.25 ug/ml [3, 10]: 29 | MIC [4, 8]: 0.03 mg/L (≈ 0.0512 µM) | MIC ([4]; Fresh Media): < 0.008 mg/L | In Vitro Activity of Tigecycline ([5]; Broth, no Oxyrase, S. aureus GC1079 tet(K)): 0.50 | MIC ([5]; Staphylococcus aureus, read-out: Minimal Inhibitory Concentration): 0.25 mg/L (≈ 0.427 µM) | In Vitro Activity of Tigecycline ([6]; Oxyrase (2%)): 0.50 | In Vitro Activity of Tigecycline ([6]; no Oxyrase): 1 | Increase in the MICs over the four week period of media storage ([7]; ATCC reference organisms, MHB stored 28 days, Table 4): 3 to 4 dilution | MICs in aged media supplemented with Oxyrase compared with fresh media ([7]; Table 3): nearly identical to those determined in fresh media | MICs in fresh media supplemented with Oxyrase compared with unsupplemented fresh media ([7]; Table 3): not significantly different | MICs in commercially prepared media and media aged 2 weeks at RT under room air higher than in freshly prepared media ([7]; Table 6): 1-4 dilutions | MICs in media stored under anaerobic conditions compared with fresh media ([7]; Table 6): nearly identical to the results obtained in fresh media | More active in freshly prepared media than in commercially prepared and aged media ([7]; reference strains): 2 to 3 dilution | MIC ([7]; reference strains, addition of Oxyrase): 0.06 to 0.25 mg/L (≈ 0.102 to 0.427 µM) | MIC ([7]; reference strains, aged medium stored under anaerobic conditions prior to testing): 0.03 to 0.12 mg/L (≈ 0.0512 to 0.205 µM) | MIC ([7]; reference strains, commercially prepared and aged (7 day old) media from powder): 0.12 to 0.25 mg/L (≈ 0.205 to 0.427 µM) | MIC ([7]; reference strains, freshly prepared media): 0.03 to 0.12 mg/L (≈ 0.0512 to 0.205 µM)

Source: patent publication US20050130252A1, “Stabilized susceptibility tests of aerobic pathogens” (Wyeth Holdings Corporation, priority 2003, published 2005)
